Laboratory results from PubChem BioAssay AID248 (DTP/NCI, 2004).
Several values for one entry are separate records, joined by “and”; a condition that tells them apart may be missing. Equal values may be shown once. Inconclusive results and toxic doses are left out.

Test system: L1210 leukemia ip in BDF1 mice, survival T/C
Test: NCI In Vivo Anticancer Drug Screen. Data for tumor model L1210 Leukemia (intraperitoneal) in B6D2F1 (BDF1) mice
Conditions: endpoint: mean survival time, higher = longer survival
Outline: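 Each compound was tested against a transplantable tumor grown in mice. The endpoint was survival, with treated animals benchmarked against vehicle controls as a simple ratio.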

[1] = dose: 100.0 mg/kg/injection, schedule: Q01DX009 (ip), vehicle: Klucel (hydroxypropylcellulose) (HPC)
[2] = dose: 100.0 mg/kg/injection, schedule: Q04DX003 (ip), vehicle: Klucel (hydroxypropylcellulose) (HPC)
[3] = dose: 200.0 mg/kg/injection, schedule: Q01DX009 (ip), vehicle: Klucel (hydroxypropylcellulose) (HPC)
[4] = dose: 200.0 mg/kg/injection, schedule: Q04DX003 (ip), vehicle: Klucel (hydroxypropylcellulose) (HPC)
[5] = dose: 400.0 mg/kg/injection, schedule: Q01DX009 (ip), vehicle: Klucel (hydroxypropylcellulose) (HPC)
[6] = dose: 400.0 mg/kg/injection, schedule: Q04DX003 (ip), vehicle: Klucel (hydroxypropylcellulose) (HPC)
[7] = dose: 100.0 mg/kg/injection, schedule: Q04DX003 (ip), vehicle: saline with Tween-80
[8] = dose: 200.0 mg/kg/injection, schedule: Q04DX003 (ip), vehicle: saline with Tween-80
[9] = dose: 400.0 mg/kg/injection, schedule: Q04DX003 (ip), vehicle: saline with Tween-80
[10] = dose: 100.0 mg/kg/injection, schedule: Q01DX001 (ip), vehicle: saline
[11] = dose: 200.0 mg/kg/injection, schedule: Q01DX001 (ip), vehicle: saline
[12] = dose: 400.0 mg/kg/injection, schedule: Q01DX001 (ip), vehicle: saline
[13] = dose: 100.0 mg/kg/injection, schedule: Q01DX009 (ip), vehicle: saline
[14] = dose: 100.0 mg/kg/injection, schedule: Q04DX002 (ip), vehicle: saline

O=C(Nc1ccc(Cl)c(Cl)c1)Oc1ccc(-c2ccccc2)cc1
T/C [1]: 93 % of control | T/C [2]: 87 % of control | T/C [3]: 100 % of control | T/C [4]: 92 % of control | T/C [5]: 90 % of control | T/C [6]: 88 % of control

O=C1/C(=C\c2ccc(OCc3ccccc3)cc2)N2CCC1CC2
T/C [7]: 97 % of control | T/C [8]: 95 % of control | T/C [9]: 87 % of control

CN(C)N=Nc1ccc([N+](=O)[O-])cc1C(N)=O
T/C (dose: 100.0 mg/kg/injection, schedule: Q01DX001 (ip), vehicle: saline with Tween-80): 117 % of control | T/C (dose: 100.0 mg/kg/injection, schedule: Q01DX007 (ip), vehicle: saline with Tween-80): 124 % of control | T/C [7]: 108 % of control | T/C (dose: 180.0 mg/kg/injection, schedule: Q01DX009 (ip), vehicle: saline with Tween-80): 170 % of control | T/C (dose: 200.0 mg/kg/injection, schedule: Q01DX001 (ip), vehicle: saline with Tween-80): 104 % of control | T/C [8]: 105 % of control | T/C (dose: 268.0 mg/kg/injection, schedule: Q01DX009 (ip), vehicle: saline with Tween-80): 167 % of control | T/C (dose: 400.0 mg/kg/injection, schedule: Q01DX001 (ip), vehicle: saline with Tween-80): 108 % of control | T/C (dose: 400.0 mg/kg/injection, schedule: Q01DX007 (ip), vehicle: saline with Tween-80): 154 % of control | T/C (dose: 400.0 mg/kg/injection, schedule: Q01DX009 (ip), vehicle: saline with Tween-80): 122 % of control | T/C [9]: 117 % of control | T/C (dose: 600.0 mg/kg/injection, schedule: Q01DX009 (ip), vehicle: saline with Tween-80): 90 % of control

O=[N+]([O-])c1ccc(N/N=C\c2ccc(OCc3ccccc3)cc2)c([N+](=O)[O-])c1
T/C (dose: 100.0 mg/kg/injection, schedule: Q01DX001 (ip), vehicle: other): 86 % of control

S=c1[nH]c2nc(Cl)c(Cl)nc2[nH]1
T/C (dose: 50.0 mg/kg/injection, schedule: Q01DX009 (ip), vehicle: saline with Tween-80): 95 % of control | T/C (dose: 100.0 mg/kg/injection, schedule: Q01DX009 (ip), vehicle: saline with Tween-80): 91 % of control | T/C [7]: 97 % of control | T/C (dose: 200.0 mg/kg/injection, schedule: Q01DX009 (ip), vehicle: saline with Tween-80): 100 % of control | T/C [8]: 102 % of control

CC1(C)C2CCC(=O)OC1CC2 (configuration not stated)
T/C (dose: 5.0 mg/kg/injection, schedule: Q01DX001 (ip), vehicle: saline): 116 % of control | T/C (dose: 10.0 mg/kg/injection, schedule: Q01DX001 (ip), vehicle: saline): 100 % of control | T/C (dose: 20.0 mg/kg/injection, schedule: Q01DX001 (ip), vehicle: saline): 86 % of control | T/C (dose: 40.0 mg/kg/injection, schedule: Q01DX001 (ip), vehicle: saline): 108 % of control

O=C1NNCc2c1sc1ccccc21
T/C [10]: 98 % of control | T/C [11]: 98 % of control | T/C [12]: 102 % of control

CN=C(N)c1ccc(S(=O)(=O)N=C(N)N)cc1
T/C [10]: 96 % of control | T/C [11]: 98 % of control | T/C [12]: 100 % of control

CC1CC(C)(C)[N+](C)=C(CC(C)(C)O)O1 (configuration not stated)
T/C (dose: 100.0 mg/kg/injection, schedule: Q04DX003 (ip), vehicle: saline): 113 % of control

COc1ccc2c(c1)C(=O)CC(C)N2S(=O)(=O)c1ccc(C)cc1 (configuration not stated)
T/C (dose: 18.75 mg/kg/injection, schedule: Q04DX002 (ip), vehicle: Klucel (hydroxypropylcellulose) (HPC)): 95 % of control | T/C (dose: 37.5 mg/kg/injection, schedule: Q04DX002 (ip), vehicle: Klucel (hydroxypropylcellulose) (HPC)): 113 % of control | T/C (dose: 75.0 mg/kg/injection, schedule: Q04DX002 (ip), vehicle: Klucel (hydroxypropylcellulose) (HPC)): 103 % of control | T/C (dose: 150.0 mg/kg/injection, schedule: Q04DX002 (ip), vehicle: Klucel (hydroxypropylcellulose) (HPC)): 98 % of control and 103 % of control | T/C (dose: 300.0 mg/kg/injection, schedule: Q04DX002 (ip), vehicle: Klucel (hydroxypropylcellulose) (HPC)): 87 % of control

O=c1/c(=C\c2ccccc2Cl)sc2n1CCN=2
T/C [10]: 100 % of control | T/C [11]: 105 % of control | T/C [12]: 105 % of control

CC(C)NCC(O)c1ccc(O)c(O)c1 (configuration not stated)
T/C (dose: 50.0 mg/kg/injection, schedule: Q01DX009 (ip), vehicle: saline): 103 % of control | T/C (dose: 75.0 mg/kg/injection, schedule: Q01DX001 (ip), vehicle: saline): 105 % of control | T/C [1]: 108 % of control and 111 % of control | T/C [13]: 110 % of control | T/C [2]: 104 % of control | T/C (dose: 150.0 mg/kg/injection, schedule: Q01DX001 (ip), vehicle: saline): 100 % of control | T/C [3]: 113 % of control | T/C (dose: 200.0 mg/kg/injection, schedule: Q01DX009 (ip), vehicle: saline): 114 % of control | T/C [4]: 100 % of control | T/C (dose: 300.0 mg/kg/injection, schedule: Q01DX001 (ip), vehicle: saline): 123 % of control | T/C [6]: 100 % of control

Cc1cccn1C(C)c1ccccc1 (configuration not stated)
T/C [7]: 97 % of control | T/C [8]: 94 % of control | T/C [9]: 97 % of control

O=C(Nc1cccc(F)c1)Nc1cc([N+](=O)[O-])ccc1Cl
T/C [1]: 97 % of control | T/C [3]: 94 % of control | T/C [5]: 94 % of control and 97 % of control

CN(C)Cc1ccccc1COC(=O)c1ccc([N+](=O)[O-])cc1Cl
T/C (dose: 100.0 mg/kg/injection, schedule: Q04DX002 (ip), vehicle: Klucel (hydroxypropylcellulose) (HPC)): 102 % of control | T/C (dose: 200.0 mg/kg/injection, schedule: Q04DX002 (ip), vehicle: Klucel (hydroxypropylcellulose) (HPC)): 109 % of control | T/C (dose: 400.0 mg/kg/injection, schedule: Q04DX002 (ip), vehicle: Klucel (hydroxypropylcellulose) (HPC)): 94 % of control

CCOCCN1C=C/C(=C/C=C/c2cc[n+](CCOCC)c3ccccc23)c2ccccc21
T/C (dose: 0.31 mg/kg/injection, schedule: Q04DX003 (ip), vehicle: saline): 98 % of control | T/C (dose: 0.45 mg/kg/injection, schedule: Q01DX009 (ip), vehicle: saline): 104 % of control | T/C (dose: 0.62 mg/kg/injection, schedule: Q04DX003 (ip), vehicle: saline): 121 % of control | T/C (dose: 0.9 mg/kg/injection, schedule: Q01DX009 (ip), vehicle: saline): 118 % of control | T/C (dose: 1.25 mg/kg/injection, schedule: Q01DX001 (ip), vehicle: saline): 96 % of control | T/C (dose: 1.25 mg/kg/injection, schedule: Q04DX003 (ip), vehicle: saline): 111 % of control | T/C (dose: 1.8 mg/kg/injection, schedule: Q04DX003 (ip), vehicle: saline): 98 % of control

CCC1N2CCc3cc(OC)c(OC)cc3C2CCC1(O)Cc1ccccn1 (configuration not stated)
T/C (dose: 100.0 mg/kg/injection, schedule: Q04DX003 (ip), vehicle: carboxymethylcellulose (CMC)): 101 % of control | T/C (dose: 200.0 mg/kg/injection, schedule: Q04DX003 (ip), vehicle: carboxymethylcellulose (CMC)): 101 % of control

O=C1CSC(c2ccccc2)N1c1ccccc1 (configuration not stated)
T/C (dose: 50.0 mg/kg/injection, schedule: Q01DX001 (ip), vehicle: saline): 106 % of control | T/C [10]: 118 % of control | T/C [11]: 108 % of control | T/C [12]: 100 % of control

CCN(c1ccccc1)C1CCCCC1=O (configuration not stated)
T/C [10]: 101 % of control | T/C [11]: 106 % of control | T/C [12]: 104 % of control

C1CCC2OCOCC2C1 (configuration not stated)
T/C (dose: 100.0 mg/kg/injection, schedule: Q04DX002 (ip), vehicle: saline with Tween-80): 93 % of control | T/C (dose: 200.0 mg/kg/injection, schedule: Q04DX002 (ip), vehicle: saline with Tween-80): 90 % of control | T/C (dose: 400.0 mg/kg/injection, schedule: Q04DX002 (ip), vehicle: saline with Tween-80): 93 % of control

Cn1ncc2c(=O)[nH]nnc21
T/C (dose: 100.0 mg/kg/injection, schedule: Q01DX001 (ip), vehicle: carboxymethylcellulose (CMC)): 98 % of control | T/C (dose: 200.0 mg/kg/injection, schedule: Q01DX001 (ip), vehicle: carboxymethylcellulose (CMC)): 89 % of control | T/C (dose: 400.0 mg/kg/injection, schedule: Q01DX001 (ip), vehicle: carboxymethylcellulose (CMC)): 104 % of control

Nc1nnc(N)c2ccccc12
T/C [14]: 100 % of control | T/C (dose: 200.0 mg/kg/injection, schedule: Q04DX002 (ip), vehicle: saline): 96 % of control | T/C (dose: 400.0 mg/kg/injection, schedule: Q04DX002 (ip), vehicle: saline): 102 % of control

CCC(C)C(CCN(C)CC)(CNC(=O)CN(CC)CC)c1cccc2ccccc12 (configuration not stated)
T/C (dose: 50.0 mg/kg/injection, schedule: Q04DX002 (ip), vehicle: saline): 106 % of control | T/C [13]: 96 % of control | T/C [14]: 97 % of control

Cc1ccc(S(=O)(=O)OCC(O)C(O)C(O)C(O)C=O)cc1 (configuration not stated) (tested in a mixture with another compound)
T/C [7]: 102 % of control | T/C [8]: 94 % of control | T/C [9]: 94 % of control
